Legend:
Assay type in all cases: cell-based
DU145 cells [1] = assay: EMT markers E-cadherin and vimentin (immunofluorescence, immunoblotting); conditions: 24 hours, SRI 31215 10 μM, JNJ 38877605 1 μM; for fibroblast-induced expression of vimentin / fibroblast-induced inhibition of E-cadherin: 18Co conditioned media
Procedure: Figure 3 SRI 31215 inhibits fibroblast-induced EMT in DU145 cells Cells were stimulated with HGF or 18Co conditioned media for 24 hours in the absence or presence of SRI 31215 (10 μM) or JNJ 38877605 (1 μM) as indicated. The expression of E-cadherin was monitored by immunofluorescence A. The levels of E-cadherin and vimentin were also determined by immunoblotting B.
(§1) Immunoblotting was performed using standard procedures. Membranes were blocked with 5% non-fat milk for 1 hour at RT, and incubated with primary antibodies overnight at 4°C. Primary antibodies used were anti-HGF (R&D Systems), anti-MET, anti-p-MET, anti-p-GAB1, anti-p-AKT, anti-p-ERK1/2, anti-vimentin (Cell Signaling Technology), anti-p-STAT3 (Upstate Cell Signaling Solutions), anti-E-cadherin (BD Transduction Laboratories), anti-β-actin (Sigma). Following washing with TBS-T buffer, membranes were incubated with horseradish peroxidase-conjugated secondary antibodies for 1 hour and then washed with TBS-T. Immunoblots were developed using the chemiluminescent detection system with ECL (Amersham). Protein loading was normalized by probing blots for the expression of β-actin.
Cells were seeded at 1×10^3 cells per well in chamber slides. Following overnight serum-starvation, cells were treated with recombinant HGF (10 ng/ml) or conditioned media prepared from fibroblasts (50%) in the presence or absence of SRI 31215 (10 μM) or JNJ 38877605 (1 μM) for 24 hours. Cells were washed with PBS, fixed in ice-cold methanol/acetic acid solution [95:5 (v/v)] for 20 minutes at-20°C and incubated with anti-E-cadherin antibodies overnight at 4°C. Slides were washed with PBS, incubated with Alexa Fluor 568 conjugated secondary antibody for 1 hour at 37°C and examined with a fluorescent microscope.

Caco2 cells = assay: Response of Caco2 cells to EGFR inhibitors with fibroblast conditioned medium; conditions: SRI 31215 10 μM, JNJ 38877605 1 μM; for response to cetuximab in the presence of fibroblast-derived CM: 18Co CM; for fibroblast-mediated resistance to gefitinib: 18Co conditioned medium
Procedure: (§2) Figure 5 Inhibitors of HGF/MET signaling prevent the innate and acquired resistance to cetuximab A. and B. RKO cells were treated with cetuximab (50 μg/ml) (A) of gefitinib (B) alone, or in combination with SRI 31215 (10 μM), JNJ 38877605 (1 μM) or recombinant HAI-1 (20 nM) as indicated and clonogenic growth was monitored as described in Materials and Methods. C. and D. Caco2 cells were treated with cetuximab or gefitinib alone or in the presence of CM from fibroblasts and SRI 31215 (10 μM) or JNJ 38877605 (1 μM) as indicated. #: p<0.05, compared to control (CTRL); NS: not significant.
(§3) Cell titer-glo luminescent cell viability assay kit was purchased from Promega. […] For clonogenic assay, cells were seeded in 6-well plates at a density of 400 cells per well, serum starved overnight, and treated as indicated. After colony formation (8-12 days), cells were stained with crystal violet and the number of colonies was determined using ImageQuantTL (GE Health Care Life Sciences).

RKO cells = assay: Clonogenic growth and viability of HGF-producing RKO cells with EGFR inhibitors; conditions: SRI 31215 10 μM, JNJ 38877605 1 μM; for sensitization to gefitinib: HGF-producing RKO cells; for clonogenic growth, agent alone / clonogenic growth, combination with cetuximab: RKO cells, HAI-1 20 nM; for clonogenic growth, combination with cetuximab: cetuximab 50 μg/ml
Procedure: as §2, §3
Supplementary Figure S3: Inhibition of HGF/MET signaling sensitizes HGF-producing RKO colon cancer cells to gefitinib. A. RKO cells (HGF+) and B. HT29 (HGF-) cells were treated with gefitinib (5 μM) in the absence or the presence of SRI 31215 (10 μM) or JNJ 38877605 (1 μM) as indicated and viability was determined 24 and 72 hours after treatment. # indicates statistical significance compared to samples treated with gefitinib alone as determined by Students’ t-test (p<0.05).
(also on this page, place not known: www.impactjournals.com/oncotarget/ Oncotarget, Materials 2016 Supplementary (HGF +) (HGF -)) […]

MET = MET activation and downstream signaling in DU145 cells (immunoblotting); conditions: 30 minutes; for fibroblast-induced MET activation and signaling / MET activation induced by active HGF: serum-starved DU145 cells, SRI 31215 10 μM, JNJ 38877605 1 μM; for fibroblast-induced MET activation and signaling: 18Co conditioned media
Procedure: Figure 2 SRI 31215 inhibits the crosstalk between tumor cells and fibroblasts A. Inhibition of fibroblast-induced oncogenic signaling in tumor cells by SRI 31215. Serum-starved DU145 cells were treated with recombinant HGF or conditioned media from 18Co cells alone or in the presence of SRI 31215 (10 μM) or JNJ 38877605 (1 μM) for 30 minutes. The levels of pMET, pGab1, pAKT, pERK, and pSTAT3 were determined by immunoblotting. Specific bands for pMET and pGab1 are indicated by asterisks. B. Inhibition of fibroblast-induced cell scattering by SRI 31215. Scattering of DU145 cells was induced with recombinant HGF or with conditioned media from 18Co fibroblasts in the presence of SRI 31215 (10 μM) or JNJ 38877605 (1 μM) as indicated. Images were taken 24 hours after treatment.
as §1
Supplementary Figure S2: Dose-dependent inhibition of fibroblast induced MET activation by SRI 31215. DU145 cells were serum-starved and were treated with conditioned medium from 18Co fibroblasts for 30 minutes in the absence or the presence of increasing concentrations of SRI 31215 as indicated. The levels of pERK1/2, pAKT, pSTAT3 and β-actin were determined by […]
(also on this page, place not known: www.impactjournals.com/oncotarget/ Oncotarget, Materials 2016 Supplementary) […]

DU145 cells [2] = assay: Scratch assay and transwell migration assay; conditions: SRI 31215 10 μM, JNJ 38877605 1 μM; for fibroblast-induced migration: 18Co or WI38 conditioned media
Procedure: Cancer cells were seeded in 12-well plates and allowed to reach confluence. Following overnight serum-starvation, a scratch/wound was introduced into the cell monolayer with a sterile tip. Cells were cultured in serum-free media or were treated with recombinant HGF (10 ng/ml) or serum-free conditioned media from fibroblasts (50%) in the presence or absence of SRI 31215 or JNJ 38877605. Images of migrating cells were captured at 0, 12 and 24 hours after the treatment.
Cytoselect cell migration assay kit was purchased from Cell Biolabs, Inc and the assay was performed according to the manufacturer's instructions. Briefly, DU145 cells (75×10^3) were seeded in transwells ([…] inserts) in serum-free media and were stimulated with recombinant HGF or with conditioned media from 18Co or WI38 fibroblasts (in the absence or the presence of SRI 31215 or JNJ 38877605). Cells were incubated for 12 hours and non-migratory cells were gently removed from inside of the inserts. Inserts were stained for 10 minutes at room temperature, transferred to wells containing 200 μl of extraction buffer and incubated for 10 minutes on a shaker. The optical density (OD) was measured at 560 nm.

Compound: CC1CN(CC2CCN(Cc3ccccc3)CC2)C(=O)N(c2cccc(C(=N)N)c2)C1 (stereo not drawn) [SRI 31215, 3-(3-((1-benzylpiperidin-4-yl)methyl)-5-methyl-2-oxotetrahydropyrimidin-1(2H)-yl)benzimidamide]
- fibroblast-induced expression of vimentin (DU145 cells [1]): prevented
- fibroblast-induced inhibition of E-cadherin (DU145 cells [1]): prevented
- response to cetuximab in the presence of fibroblast-derived CM (Caco2 cells): restored the response
- fibroblast-mediated resistance to gefitinib (Caco2 cells): overcame
- sensitization to gefitinib (RKO cells): sensitized
- clonogenic growth, agent alone (RKO cells): did not impact
- clonogenic growth, combination with cetuximab (RKO cells): significant decrease
- fibroblast-induced ERK1/2, AKT and STAT3 activation (MET; DU145 cells, 18Co conditioned medium, increasing concentrations, dose-dependent): inhibited
- fibroblast-induced MET activation and signaling (MET): prevented
- MET activation induced by active HGF (MET): did not prevent
- fibroblast-induced migration (DU145 cells [2]): inhibited
- HGF-induced migration (DU145 cells [2]): did not interfere

Compound: Cn1cc(-c2ccc3nnc(C(F)(F)c4ccc5ncccc5c4)n3n2)cn1 [JNJ 38877605, reference compound]
- fibroblast-induced expression of vimentin (DU145 cells [1]): prevented
- fibroblast-induced inhibition of E-cadherin (DU145 cells [1]): prevented
- expression of E-cadherin in HGF-treated cells (DU145 cells [1]): restored
- response to cetuximab in the presence of fibroblast-derived CM (Caco2 cells): restored the response
- fibroblast-mediated resistance to gefitinib (Caco2 cells): overcame
- sensitization to gefitinib (RKO cells): sensitized
- clonogenic growth, agent alone (RKO cells): did not impact
- clonogenic growth, combination with cetuximab (RKO cells): significant decrease
- fibroblast-induced MET activation and signaling (MET): prevented
- MET activation induced by active HGF (MET): prevented
- fibroblast-induced migration (DU145 cells [2]): completely prevented
- HGF-induced migration (DU145 cells [2]): completely prevented
